Key:
Experiment in all cases: relative viability (nuclei count vs DMSO), 5 days (fraction); higher = more cells survive
[1] = compound: COC1=CC=C(C=C1)CN2C=CC3=C2C=C(C=C3)C(=O)NO + O=C(c1cc(Cc2n[nH]c(=O)c3ccccc23)ccc1F)N1CCN(C(=O)C2CC2)CC1 [Olaparib] (partner 8 µM)
Outline: (§1)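 Five library-drug doses in √10 steps were combined with a fixed anchor-drug dose, or a single drug was given alone, by pin tool to lung cancer cell lines in 1536-well plates the day after seeding. Nuclei were stained and counted after 5 days. Relative viability is the nuclei count in treated wells over that in vehicle wells, taken as the median of duplicate plates.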

[2] = compound: COC1=CC=C(C=C1)CN2C=CC3=C2C=C(C=C3)C(=O)NO + Nc1nc2[nH]cc(CCc3ccc(C(=O)N[C@@H](CCC(=O)O)C(=O)O)cc3)c2c(=O)[nH]1 [Pemetrexed] (partner 0.2 µM)
Outline: as §1

Veliparib + Vorinostat = compound: C[C@]1(c2nc3c(C(N)=O)cccc3[nH]2)CCCN1 [Veliparib] + O=C(CCCCCCC(=O)Nc1ccccc1)NO [Vorinostat] (partner 1 µM)
Outline: as §1

Veliparib + Pictilisib = compound: C[C@]1(c2nc3c(C(N)=O)cccc3[nH]2)CCCN1 [Veliparib] + CS(=O)(=O)N1CCN(Cc2cc3nc(-c4cccc5[nH]ncc45)nc(N4CCOCC4)c3s2)CC1 [Pictilisib] (partner 1 µM)
Outline: as §1

Cell Line | relative viability ([1]; first compound 0.253 µM) | relative viability ([1]; first compound 0.8 µM) | relative viability ([1]; first compound 2.53 µM) | relative viability ([1]; first compound 8 µM) | relative viability ([2]; first compound 0.253 µM) | relative viability ([2]; first compound 0.8 µM) | relative viability ([2]; first compound 2.53 µM) | relative viability ([2]; first compound 8 µM) | relative viability (Veliparib + Vorinostat; first compound 0.02 µM) | relative viability (Veliparib + Vorinostat; first compound 0.06325 µM) | relative viability (Veliparib + Vorinostat; first compound 0.2 µM) | relative viability (Veliparib + Vorinostat; first compound 0.6325 µM) | relative viability (Veliparib + Vorinostat; first compound 2 µM) | relative viability (Veliparib + Pictilisib; first compound 0.02 µM) | relative viability (Veliparib + Pictilisib; first compound 0.06325 µM) | relative viability (Veliparib + Pictilisib; first compound 0.2 µM) | relative viability (Veliparib + Pictilisib; first compound 0.6325 µM) | relative viability (Veliparib + Pictilisib; first compound 2 µM) | relative viability ([1]; first compound 0.08 µM) | relative viability ([2]; first compound 0.08 µM)
LU99A | 0.277 | 0.262 | 0.252 | 0.26 | 0.181 | 0.169 | 0.174 | 0.194 | 0.513 | 0.477 | 0.396 | 0.441 | 0.402 | 0.349 | 0.279 | 0.296 | 0.278 | 0.323 |  | 
LXF-289 | 1.05 | 1.11 | 1.11 | 1.11 | 0.937 | 0.872 | 0.907 | 0.881 | 0.809 | 0.812 | 0.743 | 0.655 | 0.794 | 0.78 | 0.778 | 0.768 | 0.746 | 0.755 |  | 
NCI-H522 | 0.669 | 0.693 | 0.65 | 0.568 | 1.01 | 1.06 | 0.84 | 1 | 0.832 | 0.825 | 0.736 | 0.84 | 0.979 |  |  |  |  |  |  | 
NCI-H727 | 0.709 | 0.755 | 0.649 | 0.622 |  |  |  |  | 1.11 | 0.948 | 1.1 | 1.14 | 1.04 | 0.195 | 0.33 | 0.433 | 0.296 | 0.431 | 0.68 | 
NCI-H1299 | 0.98 | 0.948 | 1.03 | 0.92 |  |  |  |  |  |  |  |  |  | 0.985 | 0.703 | 0.779 | 0.751 | 0.765 | 1.04 | 
NCI-H1563 |  |  |  |  | 0.708 | 0.839 | 0.728 | 0.761 |  |  |  |  |  | 0.642 | 0.635 | 0.625 | 0.675 | 0.595 |  | 0.489
NCI-H1648 | 0.725 | 0.964 | 0.932 | 0.651 | 0.853 | 0.829 | 0.717 | 0.641 | 0.481 |  |  | 0.572 | 0.424 |  |  |  |  |  | 0.81 | 0.794
NCI-H1703 | 0.581 | 0.817 | 0.491 | 0.46 |  |  |  |  |  |  |  |  |  | 0.267 | 0.267 | 0.23 | 0.254 | 0.216 |  | 
NCI-H1792 | 0.578 | 0.445 | 0.447 | 0.561 | 0.952 | 1 | 1.05 | 0.832 |  |  |  |  |  | 0.322 | 0.212 | 0.301 | 0.263 | 0.332 | 0.438 | 0.907
NCI-H2342 | 0.449 | 0.457 | 0.442 | 0.373 | 0.788 | 0.791 | 0.753 | 0.829 | 0.787 | 0.718 | 0.732 | 0.714 | 0.703 |  |  |  |  |  | 0.437 | 0.726
SW 900 | 0.956 | 0.769 | 0.849 | 0.604 | 0.47 | 0.478 | 0.486 | 0.474 |  | 0.452 | 0.472 | 0.606 | 0.463 |  |  |  |  |  | 0.759 | 0.446

Reference: the supplement of paper PMC10307832
